Experimental data taken from patent US20220177466A1, “DEGRADERS OF KELCH-LIKE ECH-ASSOCIATED PROTEIN 1 (KEAP1)” (DANA-FARBER CANCER INSTITUTE, INC., priority 2019, published 2022).

How the values were obtained:
Assay type in all cases: cell-based
KEAP1 [1] = target: T1, KEAP1 (Homo sapiens, UniProt Q14145); assay: Rescue of degrader-induced KEAP1 degradation by pretreatment in MM.1S cells, immunoblot; conditions: pretreatment 2 h (10 μM DGY-03-118, 10 μM Lenalidomide, 0.5 μM Bortezomib, 1 μM MLN4924); for rescue of the KEAP1 degradation induced by compound 1: then 5 μM compound 1 for 2 h, FIG. 4A; for rescue of the KEAP1 degradation induced by compound 4: then 5 μM compound 4 for 2 h, FIG. 4B
T1 construct: endogenous in cells; host or cells: MM.1S cells
T1 sequence (Q14145 whole entry): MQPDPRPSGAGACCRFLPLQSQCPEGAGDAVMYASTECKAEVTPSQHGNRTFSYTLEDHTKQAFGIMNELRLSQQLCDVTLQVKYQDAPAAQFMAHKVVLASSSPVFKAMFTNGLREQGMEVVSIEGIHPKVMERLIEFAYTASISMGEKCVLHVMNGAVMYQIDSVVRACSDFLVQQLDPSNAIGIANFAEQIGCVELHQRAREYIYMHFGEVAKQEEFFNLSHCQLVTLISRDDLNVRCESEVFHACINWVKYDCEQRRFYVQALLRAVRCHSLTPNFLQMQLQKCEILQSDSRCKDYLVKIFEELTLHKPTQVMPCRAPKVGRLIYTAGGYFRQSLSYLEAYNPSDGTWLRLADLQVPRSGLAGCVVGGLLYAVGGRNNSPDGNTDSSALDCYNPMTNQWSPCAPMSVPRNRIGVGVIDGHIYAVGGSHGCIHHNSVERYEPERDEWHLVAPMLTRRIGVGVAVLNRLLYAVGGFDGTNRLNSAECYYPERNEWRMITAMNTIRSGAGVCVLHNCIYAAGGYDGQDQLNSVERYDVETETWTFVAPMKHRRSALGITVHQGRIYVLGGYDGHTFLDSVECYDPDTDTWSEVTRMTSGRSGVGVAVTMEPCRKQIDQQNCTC
Experimental: (§1) MM.1S cells were treated with 0, 0.1 μM, 1 μM, or 10 μM of compound 1 or compound 4 or 0.25 μM THAL-SNS-032 (a known CDK9 degrader, as a positive control for CDK9 degradation) for 16 hours. Cells were then lysed in RIPA buffer (Sigma) containing protease/phosphatase inhibitor cocktail (Roche). The protein concentrations were measured by bicinchoninic acid assay (BCA) analysis (Pierce™). Equal amounts of protein were resolved by 4-12% Tris-Base gels (Invitrogen), and then transferred to the Immuno-Blot polyvinylidene difluoride (PVDF) membrane (BioRad), and immunoblotted with primary antibodies against KEAP1 (cell signaling), CRBN (cell signaling), CDK9 (cell signaling) and R-Actin (cell signaling), and then immunoblotted with IRDye® 800-labeled goat anti-rabbit IgG and IRDye®800-labeled goat anti-mouse IgG (LI-COR) secondary antibodies. The membranes were detected on Odyssey CLx system.
(§2) MM.1S cells were pretreated with 10 μM DGY-03-118 (the parental compound and known KEAP1 inhibitor), 10 μM Lenalidomide (CRBN ligand), 0.5 μM Bortezomib (a proteasome inhibitor) and 1 μM MLN4924 (a neddylation inhibitor) for 2 h, and then treated with 5 μM compound 1 for 2 h. Cells were lysed and immunoblotted as described above with antibodies to KEAP1 and β-Actin.
as §2, with “compound 4” for “compound 1”

CDK9 = target: T2, CDK9 (Homo sapiens, UniProt P50750+Q96SW2); assay: CDK9 degradation in MM.1S cells, immunoblot (positive control); conditions: 0.25 μM, 16 hours, FIG. 1
T2 construct: endogenous in cells; host or cells: MM.1S cells
Experimental: as §1

KEAP1 [2] = target: T1, KEAP1; assay: Knockdown of KEAP1 in MM.1S cells, immunoblot, concentration series, 16 h; conditions: 0.1 μM, 1 μM or 10 μM, FIG. 1
Experimental: as §1

IKZF1 = target: T3, IKZF1 (Homo sapiens, UniProt Q13422); assay: Off-target degradation in MM.1S cells, immunoblot: IKZF1; conditions: 5 μM, up to 6 h, FIG. 2
T3 construct: endogenous in cells; host or cells: MM.1S cells
T3 sequence (Q96SW2 whole entry partner): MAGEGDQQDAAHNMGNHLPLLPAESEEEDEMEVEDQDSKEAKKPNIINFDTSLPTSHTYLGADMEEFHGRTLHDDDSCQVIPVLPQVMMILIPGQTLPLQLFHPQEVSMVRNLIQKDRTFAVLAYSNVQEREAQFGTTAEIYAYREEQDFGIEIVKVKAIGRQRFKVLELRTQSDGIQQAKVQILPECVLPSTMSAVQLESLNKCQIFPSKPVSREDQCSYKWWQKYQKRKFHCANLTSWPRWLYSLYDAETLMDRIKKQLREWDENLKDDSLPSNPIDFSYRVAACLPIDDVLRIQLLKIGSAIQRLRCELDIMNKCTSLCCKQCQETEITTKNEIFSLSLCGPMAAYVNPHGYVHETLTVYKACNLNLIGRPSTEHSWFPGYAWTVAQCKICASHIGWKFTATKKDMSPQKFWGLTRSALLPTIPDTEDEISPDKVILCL
T3 sequence (Q16531 whole entry partner): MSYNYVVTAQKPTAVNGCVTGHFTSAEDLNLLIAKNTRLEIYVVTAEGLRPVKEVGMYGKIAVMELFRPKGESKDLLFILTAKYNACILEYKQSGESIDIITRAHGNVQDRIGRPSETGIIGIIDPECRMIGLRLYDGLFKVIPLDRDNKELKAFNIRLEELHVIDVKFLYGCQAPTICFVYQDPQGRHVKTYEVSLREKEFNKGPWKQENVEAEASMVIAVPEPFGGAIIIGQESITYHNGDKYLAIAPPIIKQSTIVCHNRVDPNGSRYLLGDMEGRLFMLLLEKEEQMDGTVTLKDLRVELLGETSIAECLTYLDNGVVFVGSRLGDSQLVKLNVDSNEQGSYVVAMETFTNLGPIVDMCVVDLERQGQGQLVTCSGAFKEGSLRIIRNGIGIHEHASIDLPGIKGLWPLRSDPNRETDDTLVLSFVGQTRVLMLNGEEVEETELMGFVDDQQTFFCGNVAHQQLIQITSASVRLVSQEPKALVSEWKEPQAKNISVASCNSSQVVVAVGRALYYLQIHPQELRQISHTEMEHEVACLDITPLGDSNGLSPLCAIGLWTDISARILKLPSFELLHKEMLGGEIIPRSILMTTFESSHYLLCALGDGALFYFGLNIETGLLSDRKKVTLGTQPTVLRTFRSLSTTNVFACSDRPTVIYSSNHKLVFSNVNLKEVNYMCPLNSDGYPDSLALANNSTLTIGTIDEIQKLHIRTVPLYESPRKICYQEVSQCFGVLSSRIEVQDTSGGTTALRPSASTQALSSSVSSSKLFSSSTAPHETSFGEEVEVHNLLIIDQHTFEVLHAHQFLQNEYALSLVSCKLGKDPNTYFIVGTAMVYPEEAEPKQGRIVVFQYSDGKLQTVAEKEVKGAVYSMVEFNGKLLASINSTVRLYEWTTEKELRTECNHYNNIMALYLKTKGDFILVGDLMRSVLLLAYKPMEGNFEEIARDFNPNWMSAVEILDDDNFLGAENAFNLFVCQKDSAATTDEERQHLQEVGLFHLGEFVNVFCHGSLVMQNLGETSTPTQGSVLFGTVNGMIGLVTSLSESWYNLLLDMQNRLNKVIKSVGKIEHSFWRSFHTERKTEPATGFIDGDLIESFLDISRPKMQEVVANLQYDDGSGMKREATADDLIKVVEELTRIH
T3 sequence (Q13422 whole entry): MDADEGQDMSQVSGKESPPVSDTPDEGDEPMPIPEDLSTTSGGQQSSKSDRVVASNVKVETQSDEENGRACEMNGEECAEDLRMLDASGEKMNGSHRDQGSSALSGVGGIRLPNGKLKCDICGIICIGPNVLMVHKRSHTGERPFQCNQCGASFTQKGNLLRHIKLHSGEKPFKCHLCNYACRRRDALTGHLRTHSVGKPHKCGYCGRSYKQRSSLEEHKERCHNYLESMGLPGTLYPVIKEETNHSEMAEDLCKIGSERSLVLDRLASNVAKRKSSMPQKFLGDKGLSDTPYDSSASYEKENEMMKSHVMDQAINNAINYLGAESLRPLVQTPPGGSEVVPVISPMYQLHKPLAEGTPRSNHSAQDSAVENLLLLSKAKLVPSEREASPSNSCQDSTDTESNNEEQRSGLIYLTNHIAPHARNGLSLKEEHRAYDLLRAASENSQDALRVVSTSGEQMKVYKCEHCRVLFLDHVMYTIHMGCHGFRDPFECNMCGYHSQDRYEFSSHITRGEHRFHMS
Experimental: as §1
(§3) MM.1S cells were treated with 0 or 5 μM compound 1 or compound 4 for 0, 2, 4, or 6 h. Cells were lysed and immunoblotted as described above with antibodies to KEAP1 (cell signaling), CRBN (cell signaling), IKZF1 (cell signaling), IKZF3 (cell signaling), GSPT1 (abcam) and R-Actin (cell signaling).

IKZF3 = target: T4, IKZF3 (Homo sapiens, UniProt Q9UKT9); assay: Off-target degradation in MM.1S cells, immunoblot: IKZF3; conditions: 5 μM, up to 6 h, FIG. 2
T4 construct: endogenous in cells; host or cells: MM.1S cells
T4 sequence (Q96SW2 whole entry partner): as the sequence (Q96SW2 whole entry partner) above
T4 sequence (Q16531 whole entry partner): as the sequence (Q16531 whole entry partner) above
T4 sequence (Q9UKT9 whole entry): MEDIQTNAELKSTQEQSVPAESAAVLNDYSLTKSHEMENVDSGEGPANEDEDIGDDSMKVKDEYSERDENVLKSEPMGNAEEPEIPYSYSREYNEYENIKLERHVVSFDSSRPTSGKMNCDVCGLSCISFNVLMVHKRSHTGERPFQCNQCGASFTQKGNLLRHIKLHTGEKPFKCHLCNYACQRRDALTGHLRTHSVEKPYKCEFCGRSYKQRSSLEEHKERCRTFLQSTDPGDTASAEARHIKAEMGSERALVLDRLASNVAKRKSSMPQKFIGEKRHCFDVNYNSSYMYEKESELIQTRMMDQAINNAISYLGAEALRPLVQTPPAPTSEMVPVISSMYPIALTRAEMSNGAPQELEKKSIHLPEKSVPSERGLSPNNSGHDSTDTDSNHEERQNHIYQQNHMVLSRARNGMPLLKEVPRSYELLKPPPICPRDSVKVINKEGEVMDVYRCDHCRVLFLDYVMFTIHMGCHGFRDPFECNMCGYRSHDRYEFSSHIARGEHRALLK
Experimental: as §1, §3

GSPT1 = target: T5, GSPT1 (Homo sapiens, UniProt P15170); assay: Off-target degradation in MM.1S cells, immunoblot: GSPT1; conditions: 5 μM, up to 6 h, FIG. 2
T5 construct: endogenous in cells; host or cells: MM.1S cells
T5 sequence (Q96SW2 whole entry partner): as the sequence (Q96SW2 whole entry partner) above
T5 sequence (Q16531 whole entry partner): as the sequence (Q16531 whole entry partner) above
T5 sequence (P15170 whole entry): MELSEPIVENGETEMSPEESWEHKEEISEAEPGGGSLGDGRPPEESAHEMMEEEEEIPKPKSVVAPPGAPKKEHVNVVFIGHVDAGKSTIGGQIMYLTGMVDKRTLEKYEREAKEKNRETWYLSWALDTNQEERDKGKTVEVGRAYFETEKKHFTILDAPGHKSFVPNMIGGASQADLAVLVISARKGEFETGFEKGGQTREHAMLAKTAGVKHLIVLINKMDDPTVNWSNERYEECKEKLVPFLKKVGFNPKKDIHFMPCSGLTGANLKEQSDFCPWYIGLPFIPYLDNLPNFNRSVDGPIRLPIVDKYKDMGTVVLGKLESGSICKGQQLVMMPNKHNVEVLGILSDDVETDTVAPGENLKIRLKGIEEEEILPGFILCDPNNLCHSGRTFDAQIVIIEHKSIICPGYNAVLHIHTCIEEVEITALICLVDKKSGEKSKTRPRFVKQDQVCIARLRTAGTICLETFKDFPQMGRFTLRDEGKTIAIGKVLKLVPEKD
Experimental: as §1, §3

KEAP1 [3] = target: T1, KEAP1; assay: KEAP1 degradation in wild-type (WT) MM.1S cells, immunoblot; conditions: 5 μM, 0, 2, 4 or 6 h, FIG. 3
Experimental: as §1
(§4) Wild-type (WT) (left panel) or CRBN−/− (right panel) MM.1 S cells were treated with 0 or 5 μM compound 1 or compound 4 for 0, 2, 4, or 6 h. Cells were lysed and immunoblotted as described above with antibodies to KEAP1 (cell signaling) and R-Actin (cell signaling).

KEAP1 [4] = target: T1, KEAP1; assay: KEAP1 degradation in CRBN−/− MM.1S cells, immunoblot; conditions: 5 μM, 0, 2, 4 or 6 h, FIG. 3
Experimental: as §1, §4

KEAP1 [5] = target: T1, KEAP1; assay: KEAP1 levels after washout in MM.1S cells, immunoblot; conditions: 5 μM for 2 h, washout at 2, 4, 7 and 24 hours, FIG. 5A/5B
Experimental: as §1
MM.1S cells were treated with 0 or 5 μM compound 1 for 2 h, followed by washout at 2, 4, 7, and 24 hours. Cells were lysed and immunoblotted as described above with antibodies to KEAP1 and β-Actin.
MM.1S cells were treated with 0 or 5 μM compound 4 for 2 h, followed by washout at 2, 4, 7, and 24 hours. Cells were lysed and immunoblotted as described above with antibodies to KEAP1 and β-Actin.

| SMILES | rescue of the KEAP1 degradation induced by compound 1 (KEAP1 [1]) | rescue of the KEAP1 degradation induced by compound 4 (KEAP1 [1]) | CDK9 degradation (CDK9) | degradation of KEAP1 (KEAP1 [2]) | degradation of potential off target IKZF1 (IKZF1) | degradation of potential off target IKZF3 (IKZF3) | degradation of potential off target GSPT1 (GSPT1) | KEAP1 degradation in WT MM.1S cells (KEAP1 [3]) | KEAP1 degradation in CRBN−/− MM.1S cells (KEAP1 [4]) | KEAP1 levels after washout relative to vehicle-treated cells (KEAP1 [5]) |
| --- | --- | --- | --- | --- | --- | --- | --- | --- | --- | --- |
| CC(C)C[C@H](NC(=O)[C@H](Cc1ccccc1)NC(=O)c1cnccn1)B(O)O [Bortezomib] | rescued the KEAP1 degradation | rescued the KEAP1 degradation |  |  |  |  |  |  |  |  |
| Nc1cccc2c1CN(C1CCC(=O)NC1=O)C2=O (stereo not drawn) [Lenalidomide] | rescued the KEAP1 degradation | rescued the KEAP1 degradation |  |  |  |  |  |  |  |  |
| NS(=O)(=O)OC[C@@H]1C[C@@H](n2ccc3c(N[C@H]4CCc5ccccc54)ncnc32)C[C@@H]1O [MLN4924] | rescued the KEAP1 degradation | rescued the KEAP1 degradation |  |  |  |  |  |  |  |  |
| CC(C)(C)c1cnc(CSc2cnc(NC(=O)C3CCN(CC(=O)NCCOCCOCCOCCNc4cccc5c4C(=O)N(C4CCC(=O)NC4=O)C5=O)CC3)s2)o1 (stereo not drawn) [THAL-SNS-032] |  |  | induced CDK9 degradation |  |  |  |  |  |  |  |
| COc1cc(C(CC(=O)O)c2ccc(C)c(CN3C[C@@H](C)Oc4cc(CCCCCCNC(=O)COc5cccc6c5C(=O)N(C5CCC(=O)NC5=O)C6=O)ccc4S3(=O)=O)c2)cc2nnn(C)c12 (stereo partly drawn) [compound 1, 3-(3-(((4R)-7-(6-(2-((2-(2,6-dioxopiperidin-3-yl)-1,3-dioxoisoindolin-4-yl)oxy)acetamido)hexyl)-4-methyl-1,1-dioxido-3,4-dihydro-2H-benzo[b][1,4,5]oxathiazepin-2-yl)methyl)-4-methylphenyl)-3-(7-methoxy-1-methyl-1H-benzo[d][1,2,3]triazol-5-yl)propanoic Acid] |  |  |  | induced the degradation of KEAP1 | did not induce the degradation | did not induce the degradation | did not induce the degradation | induced KEAP1 degradation | did not induce KEAP1 degradation | remained below levels in vehicle-treated cells 4 h after washout |
| COc1cc(C(CC(=O)O)c2ccc(C)c(CN3C[C@@H](C)Oc4cc(CCCCCCNC(=O)COc5cc6c7c(cccc7c5)C(=O)N(C5CCC(=O)NC5=O)C6=O)ccc4S3(=O)=O)c2)cc2nnn(C)c12 (stereo partly drawn) [compound 4, 3-(3-(((4R)-7-(6-(2-((2-(2,6-dioxopiperidin-3-yl)-1,3-dioxo-2,3-dihydro-1H-benzo[de]isoquinolin-5-yl)oxy)acetamido)hexyl)-4-methyl-1,1-dioxido-3,4-dihydro-2H-benzo[b][1,4,5]oxathiazepin-2-yl)methyl)-4-methylphenyl)-3-(7-methoxy-1-methyl-1H-benzo[d][1,2,3]triazol-5-yl)propanoic Acid] |  |  |  | induced the degradation of KEAP1 | did not induce the degradation | did not induce the degradation | did not induce the degradation | induced KEAP1 degradation | did not induce KEAP1 degradation | remained below levels in vehicle-treated cells even 24 h after washout |
